The values that follow come from patent US11666567B2, “Bromocriptine formulations” (VeroScience LLC, priority 2012, dated 2023).

Molecules are shown by their SMILES.

A short description of the data set: Volume-based particle size distribution of bromocriptine mesylate by laser diffractometry (Sympatec HELOS). In kind it is physicochemical. The following applies: Table 13, micronized material used for Example 9 tablets.

Source text: The parameters Dv10, Dv50, Dv90 and Dv99 represent the particle size at the 10%, 50%, 90% and 99% points of the cumulative volume undersize particle size distribution. Thus, a “Dv10” for a material represents a particle size wherein 10% of the volume of the material consists of particles having a particle size equal to the Dv10 value or smaller. A “Dv50” for a material represents a particle size wherein 50% of the volume of the material consists of particles having a particle size equal to the Dv50 value or smaller. A “Dv90” for a material represents a particle size wherein 90% of the volume of the material consists of particles having a particle size equal to the Dv90 value or smaller. A “Dv99” for a material represents a particle size wherein 99% of the volume of the material consists of particles having a particle size equal to the Dv99 value or smaller.
The particle size distribution ranges defined herein are based upon measurements made using technology and instruments using laser particle size analysis using the instruments and methods developed by [sequence] GmbH, in particular Sympatec HELOS which can provide particle size analysis of dry and wet samples, i.e., of powders, suspensions, emulsions or sprays and is built to the specifications of ISO 13320 “Particle size analysis—laser diffraction methods.”
Finally, the possible role of the particle size of bromocriptine mesylate used in the manufacturing process was investigated. The volume-based particle size distribution for the bromocriptine mesylate used in preparing the tablet batches was measured by laser diffractometry using a Sympatec HELOS Laser Diffractometer.
Bulk batches of bromocriptine mesylate were micronized using a jet mill under a nitrogen atmosphere at a controlled temperature of 0° C. The volume particle size distribution was measured using a Sympatec HELOS H1013 Laser Diffractometer.

With `CC(C)C[C@H]1C(=O)N2CCC[C@H]2[C@]2(O)O[C@](NC(=O)[C@@H]3C=C4c5cccc6[nH]c(Br)c(c56)C[C@H]4N(C)C3)(C(C)C)C(=O)N12.CS(=O)(=O)O` [Micronized Bromocriptine Mesylate], the “% < 1 μm” value stood at 9%, the “% < 10 μm” value turned out to be 98% and the “% < 15 μm” value came out at 100%.
